# In publication PMC10794144, “A novel antibiotic class targeting the lipopolysaccharide transporter” (Nature, 2024):
# pIC50: −log10 of the molar value. Read-outs that look alike come from different tables or passages of the source. Marks after values point to notes of the source that are not given here.
# Legend:
# E. coli ATCC 25922 = assay: microbe, parasite or virus in culture
# Outline: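 MIC read by eye as the lowest concentration preventing growth, or as the concentration past which OD600 no longer dropped. Testing used broth microdilution per CLSI M07 and M100, with a 0.5 McFarland suspension diluted in CAMHB.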
# panel of 50 off-targets = assay: Off-target activity screening, number of hits in panel of 50; type: binding; conditions: > 30% inhibition at 10 μM
# hERG = hERG (Homo sapiens, UniProt Q12809); assay: hERG
# CYP2D6 = CYP2D6 (Homo sapiens, UniProt P10635); assay: CYP inhibition; type: in vitro ADME
# GSH adduct = type: in vitro ADME
# [1] = Fraction unbound in mouse plasma; type: in vitro ADME
# [2] = Mouse pharmacokinetics study, i.v. bolus; type: in vivo; conditions: male CD1 mice, 1 mg/kg IV
# Experimental: Three male CD1 mice were administered with compound formulation (0.5 mg ml^−1 in 0.9% aqueous sodium chloride solution) as an intravenous bolus dose of 1 mg per kg. Blood was sampled at 0.08, 0.25, 0.5, 1, 2, 4, 7 and 24 h after administration and the blood collecting tubes were centrifuged for 5 min at 5,200g at room temperature to isolate the plasma supernatant. The concentrations of compound in the plasma were analysed using a liquid chromatography–mass spectrometry method with a calibration range of 5–10,000 ng ml^−1. The pharmacokinetic parameters were derived from the individual concentration data and were estimated by non-compartmental analysis.
# [3] = Human whole blood haemolysis assay; conditions: human heparinated blood, 10 min 37 °C
# Experimental: For the in vitro haemolysis test, blood was provided by Roche medical services through an anonymous blood donation for research program, approved by the Ethics Committee Northwestern Switzerland and Central Switzerland (EKNZ) and collected with informed consent. Blood was collected by venipuncture in ethylenediaminetetraacetic acid (EDTA) and Li-heparin-coated tubes. Plasma was prepared from anticoagulated blood by centrifugation (2,500g; 10 min; at room temperature) and the haematocrit was measured to ensure that it was within normal reference values. Each formulation of compound in saline was added at a concentration of 8 mg ml^−1 into test tubes containing exactly 0.5 ml of heparinated blood to give a final assay volume of 1 ml and a concentration of 4 mg ml^−1 or less (following further dilutions). After incubation in a water bath for 10 min at 37 °C, the tubes were centrifuged (10 min, 1,811g at room temperature) and 100 μl of the supernatant was subsequently transferred into test tubes containing 5 ml Drabkins solution (RANDOX Laboratories) and 1 ml phosphate buffer. Haemoglobin was photometrically determined at 540 nm according to the RANDOX test-kit instructions. The results were expressed as percentage haemolysis extrapolated from an internal standard curve with 0%, 50% and 100% haemolysed blood samples.
# [4] = system: Ca2+ channel (diltiazem site); assay: Off-target screening (CEREP); type: binding, rat; conditions: 10 µM, duplicates
# Experimental: (§1) Supplementary Table 1 │ Off-target activity screening f or MCP compou nds […]
# (§2) The assays given in the table above were conducted at Eurofins CEREP S A (Celle-Lévescault, France) and were run as single point measurements in duplicates in the presence of 10 µ M of the test compound and reported as percent inhibition of the radioligand signal or control enzymatic activity. n.d., not
# [5] = system: GABA Cl- channel receptor; assay: Off-target screening (CEREP); type: binding, rat; conditions: 10 µM, duplicates
# Experimental: as §1, §2
# PCP receptor = assay: Off-target screening (CEREP); type: binding, rat; conditions: 10 µM, duplicates
# Experimental: as §1, §2
# [6] = system: GSK-3A (second line so named); assay: Off-target screening (CEREP); type: biochemical, human; conditions: 10 µM, duplicates
# Experimental: as §1, §2
# A. baumannii = assay: Neutropaenic mouse thigh infection model; type: in vivo
# Experimental: An intramuscular inoculation of a bacterial suspension of approximately 10^6 CFU per thigh was used to induce the infection. Treatment started 2 h after infection. […] In the pneumonia model, an intratracheal inoculation of approximately 10^7 CFU per lung was used to induce the infection. Treatment started 2 h after infection. […] Standard of care antibiotic was tested at a single dose in both infection models. GraphPad Prism 8 was used for graphical presentation and to analyse data.
# C. albicans ATCC 90028 = conditions: 100%
# Sequence of CYP2D6 (P10635 whole entry): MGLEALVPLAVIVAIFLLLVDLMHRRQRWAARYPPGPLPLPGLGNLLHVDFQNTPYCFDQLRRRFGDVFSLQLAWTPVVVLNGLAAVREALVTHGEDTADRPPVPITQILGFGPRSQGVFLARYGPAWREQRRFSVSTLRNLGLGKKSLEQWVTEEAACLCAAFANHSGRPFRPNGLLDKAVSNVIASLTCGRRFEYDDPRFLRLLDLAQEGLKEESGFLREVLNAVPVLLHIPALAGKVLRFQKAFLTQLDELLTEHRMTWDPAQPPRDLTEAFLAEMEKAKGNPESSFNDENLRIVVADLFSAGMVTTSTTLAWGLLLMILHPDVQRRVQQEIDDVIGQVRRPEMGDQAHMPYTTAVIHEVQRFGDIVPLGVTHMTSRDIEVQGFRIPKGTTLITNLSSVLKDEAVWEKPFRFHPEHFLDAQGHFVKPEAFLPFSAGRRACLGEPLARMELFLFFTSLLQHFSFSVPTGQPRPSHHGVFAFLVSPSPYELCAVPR
# Sequence of hERG (Q12809 whole entry): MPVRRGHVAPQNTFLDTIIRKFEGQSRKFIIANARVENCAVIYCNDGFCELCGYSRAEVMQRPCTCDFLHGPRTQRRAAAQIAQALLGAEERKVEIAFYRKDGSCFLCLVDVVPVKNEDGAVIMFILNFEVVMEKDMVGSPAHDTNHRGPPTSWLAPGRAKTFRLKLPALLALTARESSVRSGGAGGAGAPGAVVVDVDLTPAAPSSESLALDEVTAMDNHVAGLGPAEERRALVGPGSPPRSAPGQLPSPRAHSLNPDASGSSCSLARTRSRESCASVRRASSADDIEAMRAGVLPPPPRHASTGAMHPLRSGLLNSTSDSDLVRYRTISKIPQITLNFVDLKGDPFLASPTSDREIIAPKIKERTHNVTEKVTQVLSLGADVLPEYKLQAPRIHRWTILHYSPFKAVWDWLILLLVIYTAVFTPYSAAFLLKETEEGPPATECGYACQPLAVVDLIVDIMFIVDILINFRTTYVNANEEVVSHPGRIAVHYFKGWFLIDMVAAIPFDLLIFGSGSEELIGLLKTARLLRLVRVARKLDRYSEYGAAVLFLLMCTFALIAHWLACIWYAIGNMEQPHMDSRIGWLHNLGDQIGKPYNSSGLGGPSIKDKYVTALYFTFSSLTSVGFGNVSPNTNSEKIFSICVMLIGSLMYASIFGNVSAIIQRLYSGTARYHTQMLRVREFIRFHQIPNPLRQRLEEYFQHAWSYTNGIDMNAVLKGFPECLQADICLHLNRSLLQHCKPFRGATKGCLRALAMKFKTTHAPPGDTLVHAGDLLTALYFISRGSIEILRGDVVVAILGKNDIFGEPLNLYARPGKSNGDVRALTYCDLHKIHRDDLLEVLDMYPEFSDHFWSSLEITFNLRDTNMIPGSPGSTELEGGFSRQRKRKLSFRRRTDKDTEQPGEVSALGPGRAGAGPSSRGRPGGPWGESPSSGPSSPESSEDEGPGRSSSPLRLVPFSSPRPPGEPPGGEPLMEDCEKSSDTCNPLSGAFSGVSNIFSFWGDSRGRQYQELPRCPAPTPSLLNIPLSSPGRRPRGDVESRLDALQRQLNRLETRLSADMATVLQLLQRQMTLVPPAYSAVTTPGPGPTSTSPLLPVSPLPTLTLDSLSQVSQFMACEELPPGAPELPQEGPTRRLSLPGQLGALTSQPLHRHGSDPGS
structure (smiles),measurement,setting,value
CN1C(=O)[C@H](CCCCN)NC(=O)[C@H](CCCN)NCc2cccnc2Sc2c(Cl)ccc(-c3ccc(C(=O)O)cc3)c2CNC(=O)[C@@H]1Cc1c[nH]c2ccccc12 [RO7202110],MIC,"E. coli ATCC 25922; Escherichia coli, ATCC25922",> 64 µg/mL
same,Off-target hits,panel of 50 off-targets,2 #
same,pIC50,hERG,< 4.70
same,hERG IC20,hERG,> 10 µM
same,MNT,Micronucleus test (MNT),Negative
same,CYP inh. (2D6),CYP2D6,>50 (3A4) >50 (2C9) >50 (2D6) μM
same,GSH adduct,GSH adduct,Clean
same,"fu (m), fraction unbound in mouse plasma",[1],10%
same,Vss,[2]; n = 3,0.9 L/kg
same,"t1/2, terminal plasma half-life",[2]; n = 3,12 min
same,Cl,"[2]; n = 3, LC-MS, non-compartmental",84 mL/min/kg
same,Haemolysis,[3],None
same,percent inhibition,[4],2%
same,percent inhibition,[5],-1%
same,percent inhibition,PCP receptor,9%
same,percent inhibition,[6],-6%
CN1C(=O)[C@H](CCCN)NC(=O)[C@H](CCCN)NCc2ccccc2Sc2ccccc2CNC(=O)[C@@H]1Cc1c[nH]c2ccccc12 [RO7036668],MIC,"E. coli ATCC 25922; CAMHB, mode of at least three replicates (RO7036668 one replicate)",>64 µg/mL
same,MIC,"E. coli ATCC 25922; Escherichia coli, ATCC25922",> 64 µg/mL
same,CYP inh. (2D6),CYP2D6,> 50 µM
"C[C@@H](O)[C@H]1C(=O)N2C(C(=O)O)=C(S[C@@H]3CN[C@H](C(=O)N(C)C)C3)[C@H](C)[C@H]12 [meropenem, reference compound]",MIC,"E. coli ATCC 25922; Escherichia coli, ATCC25922",≤ 0.06 µg/mL
same,MIC,"E. coli ATCC 25922; Escherichia coli, ATCC25922, read-out: MIC 100%",≤ 0.06 µg/mL
same,MIC 100%,E. coli ATCC 25922; Study LGC277937,≤0.06 mg/L
same,MIC 100%,E. coli ATCC 25922; Study LGC279800,≤0.06 mg/L
same,MIC 100%,E. coli ATCC 25922; Study LGC281440,≤0.06 mg/L
same,MIC 100%,E. coli ATCC 25922; Study LGC282160,≤0.06 mg/L
same,MIC 100%,E. coli ATCC 25922; Study LGC282623,≤0.06 mg/L
same,MIC 100%,E. coli ATCC 25922; Study LGC283932,≤0.06 mg/L
same,MIC 100%,E. coli ATCC 25922; Study LGC284200,≤0.06 mg/L
same,MIC 100%,E. coli ATCC 25922; Study LGC284879,≤0.06 mg/L
same,MIC 100%,E. coli ATCC 25922; Study LGC285582,≤0.06 mg/L
same,MIC 100%,E. coli ATCC 25922; Study LGC286210,≤0.06 mg/L
same,MIC 100%,E. coli ATCC 25922; Study LGC293598,≤0.06 mg/L
same,MIC 100%,E. coli ATCC 25922; Study LGC294355,≤0.06 mg/L
same,MIC 100%,E. coli ATCC 25922; Study LGC295147,≤0.06 mg/L
same,MIC 100%,E. coli ATCC 25922; Study LGC296813,≤0.06 mg/L
same,MIC 100%,E. coli ATCC 25922; Study LGC299544,≤0.06 mg/L
same,MIC 100%,E. coli ATCC 25922; Study LGC301026,≤0.06 mg/L
same,MIC 100%,E. coli ATCC 25922; Study LGC308175,≤0.06 mg/L
same,MIC 100%,E. coli ATCC 25922; Study ROC003,≤0.06 mg/L
same,MIC 100%,E. coli ATCC 25922; Study ROC004,≤0.06 mg/L
same,MIC 100%,E. coli ATCC 25922; Study ROC005,≤0.06 mg/L
same,MIC 100%,E. coli ATCC 25922; Study ROC006,≤0.06 mg/L
same,MIC 100%,E. coli ATCC 25922; Study ROC007,≤0.06 mg/L
same,MIC 100%,E. coli ATCC 25922; Study ROC008,≤0.06 mg/L
same,MIC 100%,E. coli ATCC 25922; Study ROC009,≤0.06 mg/L
same,MIC 100%,E. coli ATCC 25922; Study ROC010,≤0.06 mg/L
same,MIC 100%,E. coli ATCC 25922; Study ROC013,≤0.06 mg/L
same,delta 24 hr,"A. baumannii; A. baumannii ACC00535 (APV00535), neutropenic mice, MERO 100 mg/kg, 24 h, change of average log CFU/thigh vs vehicle at 24 h",0.67
same,Thigh bacterial burden outcome,"A. baumannii; ACC00535, neutropaenic mice",bacterial outgrowth
same,MIC 100%,C. albicans ATCC 90028; Study LGC277937,>64 mg/L
same,MIC 100%,C. albicans ATCC 90028; Study LGC279800,>64 mg/L
same,MIC 100%,C. albicans ATCC 90028; Study LGC281440,>64 mg/L
same,MIC 100%,C. albicans ATCC 90028; Study LGC282160,>64 mg/L
same,MIC 100%,C. albicans ATCC 90028; Study LGC282623,>64 mg/L
same,MIC 100%,C. albicans ATCC 90028; Study LGC283932,>64 mg/L
same,MIC 100%,C. albicans ATCC 90028; Study LGC284200,>64 mg/L
same,MIC 100%,C. albicans ATCC 90028; Study LGC284879,>64 mg/L
same,MIC 100%,C. albicans ATCC 90028; Study LGC285582,>64 mg/L
same,MIC 100%,C. albicans ATCC 90028; Study LGC286210,>64 mg/L
same,MIC 100%,C. albicans ATCC 90028; Study LGC293598,>64 mg/L
same,MIC 100%,C. albicans ATCC 90028; Study LGC294355,>64 mg/L
same,MIC 100%,C. albicans ATCC 90028; Study LGC295147,>64 mg/L
same,MIC 100%,C. albicans ATCC 90028; Study LGC296813,>64 mg/L
same,MIC 100%,C. albicans ATCC 90028; Study LGC299544,>64 mg/L
same,MIC 100%,C. albicans ATCC 90028; Study LGC301026,>64 mg/L
same,MIC 100%,C. albicans ATCC 90028; Study LGC308175,>64 mg/L
same,MIC 100%,C. albicans ATCC 90028; Study ROC003,>64 mg/L
same,MIC 100%,C. albicans ATCC 90028; Study ROC004,>64 mg/L
same,MIC 100%,C. albicans ATCC 90028; Study ROC005,>64 mg/L
same,MIC 100%,C. albicans ATCC 90028; Study ROC006,>64 mg/L
same,MIC 100%,C. albicans ATCC 90028; Study ROC008,>64 mg/L
same,MIC 100%,C. albicans ATCC 90028; Study ROC009,>64 mg/L
same,MIC 100%,C. albicans ATCC 90028; Study ROC010,>64 mg/L
same,MIC 100%,C. albicans ATCC 90028; Study ROC013,>64 mg/L
